Source: article PMC10860144, “Exploring the Dispersion and Electrostatic Components in Arene–Arene Interactions between Ligands and G4 DNA to Develop G4-Ligands” (Journal of Medicinal Chemistry, 2024)

Key:
G4 DNA (Pu22) = test: Isothermal titration calorimetry (ITC), reverse titration; parameters: species or system human; conditions: G4 DNA titrated to ligand; 19 °C; one-site binding model
Procedure: Unfortunately, this was only possible using reverse titration, adding G4 DNA to the ligand, and a direct comparison to the MST binding affinities, which were performed by titrating the ligand to the G4, can thus not be performed. […] The reason why 5 is more efficient in stabilizing G4 DNA could instead be linked to the entropic penalty (−TΔS), which is less for 5 (1.85 kcal/mol) compared to 27 (3.2 kcal/mol).
ITC experiments were performed using a MicroCal ITC200 instrument (GE Healthcare). A buffer containing 10 mM potassium phosphate and 100 mM KCl of pH 7.4 was prepared. The sample cell was filled with a 20 μM ligand, and the syringe with 120 μM prefolded G4 DNA. […] The data was analyzed in MICROCAL PEAQ-ITC analysis software using a one-site binding mode. […]
The following settings were applied: temperature 19 °C, reference power 7 μcal/sec, initial delay 300 sec, stirring speed 1000 RPM, spacing 120 sec, filter 5 sec, first injection 0.5 μL for 1 sec then 2 μL for 4 sec for the subsequent injections, and high-feedback mode. The data was analyzed in MICROCAL PEAQ-ITC analysis software using a one-site binding mode.
Figure S20. Binding curves with their associated ΔG-, ΔH-, and -TΔS-values for compounds 5 and 27 for G4 DNA (Pu22) measured by ITC with a one-site binding model. […]
structure. […] Excitation sculpting was used in the 1D 1H experiments, and 256 scans were recorded. […]

[1] = Caco-2 intrinsic permeability; assay type: in vitro ADME; conditions: human, read-out: Cell-permeability (Papp)
Excerpt: We next performed further profiling of the most promising compound 5 and its matched pair neutral analogue 27, by measuring intrinsic permeability in a Caco-2 assay (Table S3). […] This was further confirmed using Immortalized Human Total Liver Cell Population (IHTLCP) and HeLa cells (Figures S22 and S23). […] This observed cytotoxicity of 5 can be linked to its potent G4 binding and stabilization, as it can potentially act as a pan-G4 stabilizer and affect various G4-regulated cellular processes, such as telomere maintenance, gene transcription, and DNA replication.
Physicochemical properties
The Physicochemical profiling (LogD, Solubility, Caco-2 cell permeability) was performed as previously
described.8 Cell viability was performed as described below.
Table S2. Pharmacokinetic Properties
Compound Structure logD, Solubility, Rat hepsa Human mics b

[2] = test system: Tba (thrombin binding aptamer); test: FRET melting assay, Tba G4 DNA; conditions: 5 at 2 μM, 27 at 5 μM; G4 DNA 0.2 μM
Procedure: Additional G4 DNA structures were examined in the FRET melting assay to study the selectivity of compound (5) and its methylated analogue (27) toward different G4 structures. Compounds 5 and 27 were tested at 2 and 5 μM, respectively, for their abilities to increase the thermal stability of G4 DNA structures (Figure 6C and Table S1). Overall, this confirms that compound 5 is a much stronger G4 stabilizer, as compared to 27.
Synthetic labeled oligonucleotides for the FRET study were purchased from Eurofins Genomics. Stock solutions were prepared in MQ-water at 100 μM concentration. The sequences used are listed in Supporting Information Table S1. All the oligonucleotides except Pu22 were prefolded in 10 mM lithium cacodylate buffer (pH 7.4), with 10 mM KCl and 90 mM LiCl by heating for 10 min at 95 °C and then cooling in fridge for at least 1 h. […]
The FRET occurs between two dyes (5′-FAM as donor and 3′-TAMRA as acceptor) linked at both extremities of a DNA oligonucleotide. […] This process can be detected by a reduction in the fluorescence emission of the donor. Fluorescence emission of the donor is recovered when the temperature increment triggers the thermal denaturation of the G4 structure. […] The stabilization (ΔTm) is calculated from comparison of Tm of the fluorescently labeled oligonucleotide in the presence or absence of the ligand.

| Structure (SMILES) | Kd (G4 DNA (Pu22)) [nM] | Papp [1] [×10⁻⁶ cm/s] | effect on thermal stability of Tba [2] |
| --- | --- | --- | --- |
| Cc1cc(C)c2nc(Nc3nc(C)cc(NCCCN(C)C)n3)nc(C)c2c1 [Compound 5, N4-(3-(Dimethylamino)propyl)-6-methyl-N2-(4,6,8-trimethylquinazolin-2-yl)pyrimidine-2,4-diamine] | 880 | < 0.13 | Neither compound affected the thermal stability |
| Cc1cc(C)c2nc(Nc3nc(C)cc(C)n3)nc(C)c2c1 [Compound 27, N-(4,6-Dimethylpyrimidin-2-yl)-4,6,8-trimethylquinazolin-2-amine] | 1040 | 70 | Neither compound affected the thermal stability |
